Data on 4 molecules can be found in patent US11000510B2, “Methods of using anti-CD79b immunoconjugates” (Genentech, Inc., priority 2014, dated 2021).

One test deals with WSU-DLCL2 (DLBCL). The test is described as follows: Combination efficacy in tumor xenograft model of WSU-DLCL2 (Example 6). In kind it is in vivo, C.B-17 SCID mice. Particulars: ADC 2 mg/kg iv once; GA101 30 mg/kg ip once; GDC-199 100 mg/kg po qdx21; GDC-032 10 mg/kg po qdx21; rituximab 30 mg/kg ip once. How it is done: GA101 dosed 30 mg/kg, ip, once. Bcl2 inhibitor, GDC-199, was dosed at 100 mg/kg, po, qdx21. PI3K inhibitor, GDC-032 was dosed at 10 mg/kg, po, qdx21.

In test [1] the test system is Granta-519 human mantle-cell lymphoma. Put plainly: Combination efficacy in tumor xenograft model of Granta-519 (Example 3). Particulars: ADC 1 mg/kg iv once; ABT-199 100 mg/kg orally once a day for 21 days. In kind it is in vivo. From the text:
To appropriately analyze the repeated measurement of tumor volumes from the same animals over time, a mixed modeling approach was used (Pinheiro J, et al. nlme: linear and nonlinear mixed effects models. 2009; R package, version 3.1-96). This approach addresses both repeated measurements and modest dropout rates due to non-treatment related removal of animals before the study end. Cubic regression splines were used to fit a non-linear profile to the time courses of log2 tumor volume at each dose level. These non-linear profiles were then related to dose within the mixed model. The results were plotted as fitted tumor volume of each group over time.

A further test has as its system non-ABC-DLBCL cells. Particulars: Br J Haematol 2013 Zhang et al.; cited from earlier work.
The subject of test [2] is activated B-cell-like (ABC) subtype. Particulars: Br J Haematol 2013 Zhang et al.; cited from earlier work.
The subject of the next test is TMD8 (ABC-DLBCL). The test is described as follows: Combination efficacy in tumor xenograft model of TMD8 (Example 5). Particulars: ADC 2 mg/kg iv once; GA101 1 mg/kg ip qwx3; lenalidomide 20 mg/kg po (qdx5)x3.

Experimental for TMD8 (ABC-DLBCL): When the xenograft tumors reached desired volume, animals were randomized and received treatments (Day 0 of the study). There were seven treatment groups (1) vehicle, (2) GA101, (3) anti-CD79b-MC-vc-PAB-MMAE, (4) lenalidomide, (5) GA101+anti-CD79b-MC-vc-PAB-MMAE, (6) GA101+lenalidomide, and (7) GA101+lenalidomide+anti-CD79b-MC-vc-PAB-MMAE. CD79b-MC-vc-PAB-MMAE ADC was dosed once intravenously at 2 mg/kg, iv, once. GA101 dosed 1 mg/kg, ip, qwx3. Lenalidomide was administered at 20 mg/kg, po, (qdx5)×3.
As described above, tumors were measured 1-2 times a week throughout the study using UltraCal-IV calipers and tumor volume was calculated using following formula: tumor volume (mm^3)=0.5a×b^2, wherein a and b are the long and short diameters of the tumor, respectively.

For “GA101: anti-CD20 antibody; obinutuzumab is synonymous for GA101 or RO5072759; humanized B-Ly1 type II antibody”, the “effect on tumor growth (tumor volume, FIG. 4)” value (from here on “effect on tumor growth”) in the test with WSU-DLCL2 (DLBCL) is recorded as “little effect on the tumor growth”.
For `CC1(C)CCC(CN2CCN(c3ccc(C(=O)NS(=O)(=O)c4ccc(NCC5CCOCC5)c([N+](=O)[O-])c4)c(Oc4cnc5[nH]ccc5c4)c3)CC2)=C(c2ccc(Cl)cc2)C1` [ABT-199, 4-(4-{[2-(4-chlorophenyl)-4,4-dimethylcyclohex-1-en-1-yl]methyl}piperazin-1-yl)-N-({3-nitro-4-[(tetrahydro-2H-pyran-4-ylmethyl)amino]phenyl}sulfonyl)-2-(1H-pyrrolo[2,3-b]pyridin-5-yloxy)benzamide], the “anti-tumor activity (fitted tumor volume over time, FIG. 2)” value in test [1] is “did not result in anti-tumor activity”. For the same molecule, the “effect on tumor growth” value in the test on WSU-DLCL2 (DLBCL) is recorded as “little effect on the tumor growth”.
As to `Nc1cccc2c1CN(C1CCC(=O)NC1=O)C2=O` (racemic) [lenalidomide, (RS)-3-(4-Amino-1-oxo 1,3-dihydro-2H-isoindol-2-yl)piperidine-2,6-dione], the “effect on non-ABC-DLBCL cells” value in the test on non-ABC-DLBCL cells is recorded as “minimal effect”. The “growth suppression of ABC subtype” value in test [2] is recorded as “preferentially suppresses the growth”. In addition, in the test on TMD8 (ABC-DLBCL), the “anti-tumor efficacy (tumor volume, FIG. 3B)” value is reported as “little efficacy”.
On to `Cc1nc(-c2cn3c(n2)-c2ccc(-c4cnn(C(C)(C)C(N)=O)c4)cc2OCC3)n(C(C)C)n1` [GDC-0032], for which, in the test on WSU-DLCL2 (DLBCL), the “effect on tumor growth” value is listed as “little effect on the tumor growth”.
